The values below come from US11708366B2, “Heteroaryl substituted spiropiperidinyl derivatives and pharmaceutical uses thereof” (Novartis AG, priority 2020, dated 2023).

Each structure is given as a SMILES string.

In one test the target is LTC4S (Homo sapiens (Human), UniProt Q16873). The experiment in a line: Human whole blood HTRF assay (LTC4 release after calcium ionophore A23187). Type of test: cell-based. As to conditions: human whole blood HTRF IC50, human whole blood diluted 1:3, 4 h incubation, calcium ionophore A23187 stimulation, LTC4 by HTRF. In general terms: Time-resolved FRET reads energy transfer from a long-lived donor to a nearby acceptor.
Broadly, the IC50 is the concentration at which inhibition is half-maximal. On to `Cn1nc(OC2CCOCC2)cc(N2CCC3(CCCC(=O)N3c3ccc(F)c(F)c3)CC2)c1=O` [Example 17, 1-(3,4-difluorophenyl)-9-(2-methyl-3-oxo-6-((tetrahydro-2H-pyran-4-yl)oxy)-2,3-dihydropyridazin-4-yl)-1,9-diazaspiro[5.5]undecan-2-one], for which the IC50 stood at 9 nM.

Still in this test, the particulars now being: human whole blood diluted 1:3, 4 h incubation, calcium ionophore A23187 stimulation, LTC4 by HTRF; read-out: human whole blood HTRF IC50.
Turning to `O=C1CCCC2(CCN(c3cc(-n4ccc(C(F)(F)F)n4)ncn3)CC2)N1c1ccc(F)c(F)c1` [Example 57, 1-(3,4-difluorophenyl)-9-(6-(3-(trifluoromethyl)-1H-pyrazol-1-yl)pyrimidin-4-yl)-1,9-diazaspiro[5.5]undecan-2-one], the half-maximal inhibitory concentration (IC50) worked out at 850 nM. Same read-out and setting: to `O=C1CCCC2(CCN(c3ncnc(N4CCC(O)(C(F)(F)F)CC4)n3)CC2)N1c1ccc(F)c(F)c1` [Example 40, 1-(3,4-difluorophenyl)-9-(4-(4-hydroxy-4-(trifluoromethyl)piperidin-1-yl)-1,3,5-triazin-2-yl)-1,9-diazaspiro[5.5]undecan-2-one] belongs 4 nM; to `Nc1nc(N2CCC3(CCOC(=O)N3c3ccc(F)c(F)c3)CC2)cc(-n2cc(C(F)(F)F)cn2)n1` [Example 115, 9-(2-amino-6-(4-(trifluoromethyl)-1H-pyrazol-1-yl)pyrimidin-4-yl)-1-(3,4-difluorophenyl)-3-oxa-1,9-diazaspiro[5.5]undecan-2-one], 28 nM; to `CC(F)(F)c1cc(N2CCC3(CCCC(=O)N3c3ccc(F)c(F)c3)CC2)nc(N)n1` [Example 120, 9-(2-amino-6-(1,1-difluoroethyl)pyrimidin-4-yl)-1-(3,4-difluorophenyl)-1,9-diazaspiro[5.5]undecan-2-one], 32 nM. On the same count and under the same terms, to `O=C1CCCC2(CCN(c3cc(C(F)(F)C(F)(F)F)nc(CO)n3)CC2)N1c1ccc(F)c(F)c1` [Example 79, 1-(3,4-difluorophenyl)-9-(2-(hydroxymethyl)-6-(perfluoroethyl)pyrimidin-4-yl)-1,9-diazaspiro[5.5]undecane-2-one] belongs 56 nM. On the same count and under the same terms, to `Nc1nc(O[C@H]2CCOC[C@@H]2F)cc(N2CCC3(CCCC(=O)N3c3ccc(F)c(F)c3)CC2)n1` (racemic) [Example 99, rac-9-(2-amino-6-(((3S,4S)-3-fluorotetrahydro-2H-pyran-4-yl)oxy)pyrimidin-4-yl)-1-(3,4-difluorophenyl)-1,9-diazaspiro[5.5]undecan-2-one] belongs 4 nM. With `Nc1nc(N2CCC3(CC2)CC(F)CC(=O)N3c2ccc(F)c(F)c2)cc(C(F)(F)C(F)(F)F)n1` (racemic) [Example 117, rac-9-(2-amino-6-(perfluoroethyl)pyrimidin-4-yl)-1-(3,4-difluorophenyl)-4-fluoro-1,9-diazaspiro[5.5]undecan-2-one], the IC50 stood at 18 nM. Regarding `O=C1CCCC2(CCN(c3cc(-n4cc(C(F)(F)F)cn4)nc(CO)n3)CC2)N1c1ccc(F)c(F)c1` [Example 66, 1-(3,4-difluorophenyl)-9-(2-(hydroxymethyl)-6-(4-(trifluoromethyl)-1H-pyrazol-1-yl)pyrimidin-4-yl)1,9-diazaspiro[5.5]undecane-2-one], the IC50 was 1 nM.

Consider `[2H]C1(Oc2cc(N3CCC4(CCCC(=O)N4c4ccc(F)c(F)c4)CC3)nc(N)n2)CCOCC1` [Example 103, 9-(2-amino-6-((tetrahydro-2H-pyran-4-yl-4-d)oxy)pyrimidin-4-yl)-1-(3,4-difluorophenyl)-1,9-diazaspiro[5.5]undecan-2-one], for which the IC50 was found to be 8 nM. As to `O=C1CCCC2(CCN(c3cc(OCC(F)(F)F)n[nH]c3=O)CC2)N1c1ccc(F)c(F)c1` [Example 13, 1-(3,4-difluorophenyl)-9-(3-oxo-6-(2,2,2-trifluoroethoxy)-2,3-dihydropyridazin-4-yl)-1,9-diazaspiro[5.5]undecan-2-one], the IC50 is 36 nM.
